These results are taken from PMC5654082 (Malaria Journal, 2017).

Like-named read-outs stand apart in the source and are kept apart here. Marks after values point to notes of the source that are not given here.

Data set [1] has as its system OCT2. Also noted: method as in PMID 16263091. The conditions noted are these: stably transfected HEK293 cells; read-out: IC50 of [3H]MPP+ uptake, OCT2; cited from earlier work.
For data set [2] the following is noted: adult patients with uncomplicated falciparum malaria; (geometric) mean or median; cited from earlier work.
Data set [3] relates to OCT1. Also noted: method as in PMID 16263091. The settings on record: stably transfected HEK293 cells; read-out: IC50 of [3H]MPP+ uptake, OCT1; cited from earlier work.
Data set [4] concerns OCT2. Also noted: method as in PMID 21599003. The conditions noted are these: 20 µM; ASP as substrate; cited from earlier work.
For data set [5] the following is noted: Thai patients with falciparum malaria; cited from earlier work.
Data set [6] in a line: Maximum plasma concentration from in vivo pharmacokinetic studies after therapeutic dosing. The conditions noted are these: human, the literature Cmax (ng/mL) of Table 2 expressed in µM. An excerpt: As Cmax the (geometric) mean or median maximum plasma concentrations obtained from previous in vivo pharmacokinetic studies after therapeutic dosing was used.
In data set [7] the test system is OCT1. Also noted: method as in PMID 18788725. The conditions noted are these: 100 µM; ASP as substrate; cited from earlier work.

With `C=C[C@H]1C[N@@]2CC[C@H]1C[C@H]2[C@H](O)c1ccnc2ccc(OC)cc12` [Quinine, quinine], the IC50 (as a rule, the concentration at which inhibition is half-maximal) was 23 µM with OCT2 [1] and 13 µM in the data set with OCT1 [3]. Also, the Cmax – broadly, the highest concentration seen after dosing – in data set [2] is 11430^f [50] ng/mL; in data set [6], 35 µM. Besides, in the data set with OCT2 [4], the “Inhibition of OCT2” value is recorded as 72%. The Unbound fraction in data set [5] was 0.11^g [36]. Also, in the data set on OCT1 [7], the “Inhibition of OCT1” value was 60%.
